Results taken from publication PMC7724566, “Prospects for Clinical Development of Stat5 Inhibitor IST5-002: High Transcriptomic Specificity in Prostate Cancer and Low Toxicity In Vivo” (Cancers, 2020).

Assays:
[1] = biological target: T1, JAK3 (Homo sapiens, UniProt P52333); experiment: Cell-based tyrosine phosphorylation of Jak kinases (IP/immunoblot); set-up: endogenous in cells; host or cells: DU145 and CWR22Pc; conditions: 6 µM, 6 h
T1 sequence (P52333 1-1124): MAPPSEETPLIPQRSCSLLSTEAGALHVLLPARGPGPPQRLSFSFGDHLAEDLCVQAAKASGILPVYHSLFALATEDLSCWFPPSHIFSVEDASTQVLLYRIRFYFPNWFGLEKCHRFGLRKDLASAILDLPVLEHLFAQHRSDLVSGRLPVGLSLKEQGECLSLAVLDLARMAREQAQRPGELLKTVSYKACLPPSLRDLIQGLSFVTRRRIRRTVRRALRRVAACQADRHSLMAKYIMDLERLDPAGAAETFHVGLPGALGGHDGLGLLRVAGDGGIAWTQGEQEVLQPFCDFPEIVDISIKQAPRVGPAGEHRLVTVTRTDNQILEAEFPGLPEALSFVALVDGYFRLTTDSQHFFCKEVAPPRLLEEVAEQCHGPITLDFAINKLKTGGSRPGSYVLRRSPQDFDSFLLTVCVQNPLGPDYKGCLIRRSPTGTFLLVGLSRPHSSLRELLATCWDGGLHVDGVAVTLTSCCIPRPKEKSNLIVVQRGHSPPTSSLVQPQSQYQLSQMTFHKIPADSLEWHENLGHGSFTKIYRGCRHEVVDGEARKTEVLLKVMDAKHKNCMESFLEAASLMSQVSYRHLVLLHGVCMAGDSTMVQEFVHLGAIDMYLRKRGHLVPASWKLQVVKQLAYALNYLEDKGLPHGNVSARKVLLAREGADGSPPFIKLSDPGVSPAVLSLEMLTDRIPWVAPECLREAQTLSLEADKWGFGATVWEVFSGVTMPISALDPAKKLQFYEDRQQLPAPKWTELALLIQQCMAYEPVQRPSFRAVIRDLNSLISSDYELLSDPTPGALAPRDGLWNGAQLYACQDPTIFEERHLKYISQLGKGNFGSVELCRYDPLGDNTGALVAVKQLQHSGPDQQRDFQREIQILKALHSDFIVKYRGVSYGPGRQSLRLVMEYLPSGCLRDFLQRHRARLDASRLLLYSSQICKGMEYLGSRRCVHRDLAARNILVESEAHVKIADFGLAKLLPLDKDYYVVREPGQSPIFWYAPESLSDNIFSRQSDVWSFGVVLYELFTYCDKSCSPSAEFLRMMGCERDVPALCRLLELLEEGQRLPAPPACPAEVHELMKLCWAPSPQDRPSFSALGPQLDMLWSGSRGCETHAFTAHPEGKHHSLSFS
Text: (§1) Figure 5 Both IST5 and IST5-M suppress dimerization of Stat5 with similar efficacies in prostate cancer cells. (A), IST5 and IST5-M inhibit equally potently dimerization of Stat5 in native-gel-based Stat5 dimerization assay. CWR22Rv1 cells were transfected with STAT5A-eYFP (Stat5 wild type), STAT5A-N642H-eYFP (constitutive activated Stat5 by N642H mutation, as a positive control) or STAT3-eYFP (Stat3 wild type, as a negative control) constructs for 3 days. CWR22Rv1 cells were serum-starved for 16 h, pretreated with vanadate (1 mM) for 2 h, followed by treatment with vehicle, IST5 and IST5-M (1 µM) for 6 h and stimulation with Prl (10 nM) for 1 h. Dimerization of Stat5 was analyzed by detection of the eYFP fluorescence of the native Coomassie gel. (B), IST5 and IST5-M inhibited cytokine-induced dimerization of Stat5 with high efficacy in PC cells. PC-3 cells were co-transfected with pCMV-3Flag-Stat5a, pCMV-3Myc-Stat5a, and pPrlR plasmids. Cells were serum-starved for 16 h, pretreated with IST5, IST5-M or vehicle at indicated concentrations for 2 h, followed by stimulation with Prl (10 nM) for 30 min. Anti-MYC mAb was utilized to immunoprecipitate the MYC-tagged Stat5a and blotted with anti-FLAG mAb or anti-MYC mAb, as indicated. […] (C), densitometric analyses of the Stat5 dimerization data based on co-immunoprecipitations and immunoblotting in (B). […] Prostate cancer cells were treated with IST5 (6 µM) or vehicle for 6 h. Jak1, Jak2, Jak3 and Tyk2 were immunoprecipitated and blotted with anti-phospho-tyrosine, Jak1, Jak2, Jak3 and Tyk2 antibodies. Whole cell lysates (WCL) were immunoblotted for actin. (E), differences in posttranslational modifications were detected between native and recombinant STAT5a using mass spectrometry. Native STAT5a from CWR22Rv1 cells and recombinant STAT5a from E. coli were gel-purified, digested using trypsin, and analyzed by bottom-up mass spectrometry. Native full-length STAT5a (blue) is show with recombinant STAT5A highlighted (red). Sites of acetylation and phosphorylation from the respective sources are noted including two previously published sites of phosphorylation (asterisk).
(§2) Given that IST5 suppresses phosphorylation of Stat5 in PC cells, it is possible that IST5 inhibits the kinase(s) responsible for Stat5 phosphorylation and activation in PC cells. To evaluate if IST5 affects kinase activity in cancer cells, we tested kinase inhibitory activity of IST5 in two custom-tailored panels including 54 relevant kinases (Table 1), including Jak1, Jak2, Jak3, Tyk2, Abl1, Abl2, Lck, Fyn, Src and TrkB/C. In addition, we further tested if IST5 inhibits tyrosine phosphorylation of Jak1, Jak2, Jak3 or Tyk2 using a cell-based assay (Figure 5D), where phosphorylation of the kinase is indicative of enzymatic kinase activity. DU145 and CWR22Rv1 cells were treated with IST5 (6 µM) for 6 h followed by immunoprecipitation of Jak1, Jak2, Jak3 and Tyk2 and immunoblotting with anti-phospho-tyrosine antibody. […] Collectively, these findings indicate that the inhibitory effect of IST5 on Stat5 phosphorylation in cancer cells is not due to inhibition of Jak2 or other key kinases including Jak1, Jak3, Tyk2, Src, Lck, Fyn, TrkB/C, Abl1 or Abl2 (Table 1, Figure 5D).
(§3) Cell pellets were solubilized in the lysis buffer (10 mM Tris-HCl (pH 7.6), 5 mM EDTA, 50 mM sodium chloride, 30 mM sodium pyrophosphate, 50 mM sodium fluoride, 1 mM sodium orthovanadate, 1% Triton X-100, 1 mM phenylmethylsulfonyl fluoride, 5 µg/mL aprotinin, 1 µg/mL pepstatin A and 2 µg/mL leupeptin), and protein concentrations of clarified cell lysates were determined by a simplified Bradford method (Bio-Rad, Hercules, CA, USA). The whole cell lysates were immunoprecipitated with polyclonal antibodies (Table S1) followed by incubation with protein A-Sepharose beads (GE Healthcare, Chicago, IL, USA). […]

[2] = biological target: JAK1 (Homo sapiens, UniProt P23458); experiment: as above; set-up: endogenous in cells; host or cells: DU145 and CWR22Pc; conditions: 6 µM, 6 h
Text: as §1, §2, §3

Sequence of JAK1 (P23458 whole entry): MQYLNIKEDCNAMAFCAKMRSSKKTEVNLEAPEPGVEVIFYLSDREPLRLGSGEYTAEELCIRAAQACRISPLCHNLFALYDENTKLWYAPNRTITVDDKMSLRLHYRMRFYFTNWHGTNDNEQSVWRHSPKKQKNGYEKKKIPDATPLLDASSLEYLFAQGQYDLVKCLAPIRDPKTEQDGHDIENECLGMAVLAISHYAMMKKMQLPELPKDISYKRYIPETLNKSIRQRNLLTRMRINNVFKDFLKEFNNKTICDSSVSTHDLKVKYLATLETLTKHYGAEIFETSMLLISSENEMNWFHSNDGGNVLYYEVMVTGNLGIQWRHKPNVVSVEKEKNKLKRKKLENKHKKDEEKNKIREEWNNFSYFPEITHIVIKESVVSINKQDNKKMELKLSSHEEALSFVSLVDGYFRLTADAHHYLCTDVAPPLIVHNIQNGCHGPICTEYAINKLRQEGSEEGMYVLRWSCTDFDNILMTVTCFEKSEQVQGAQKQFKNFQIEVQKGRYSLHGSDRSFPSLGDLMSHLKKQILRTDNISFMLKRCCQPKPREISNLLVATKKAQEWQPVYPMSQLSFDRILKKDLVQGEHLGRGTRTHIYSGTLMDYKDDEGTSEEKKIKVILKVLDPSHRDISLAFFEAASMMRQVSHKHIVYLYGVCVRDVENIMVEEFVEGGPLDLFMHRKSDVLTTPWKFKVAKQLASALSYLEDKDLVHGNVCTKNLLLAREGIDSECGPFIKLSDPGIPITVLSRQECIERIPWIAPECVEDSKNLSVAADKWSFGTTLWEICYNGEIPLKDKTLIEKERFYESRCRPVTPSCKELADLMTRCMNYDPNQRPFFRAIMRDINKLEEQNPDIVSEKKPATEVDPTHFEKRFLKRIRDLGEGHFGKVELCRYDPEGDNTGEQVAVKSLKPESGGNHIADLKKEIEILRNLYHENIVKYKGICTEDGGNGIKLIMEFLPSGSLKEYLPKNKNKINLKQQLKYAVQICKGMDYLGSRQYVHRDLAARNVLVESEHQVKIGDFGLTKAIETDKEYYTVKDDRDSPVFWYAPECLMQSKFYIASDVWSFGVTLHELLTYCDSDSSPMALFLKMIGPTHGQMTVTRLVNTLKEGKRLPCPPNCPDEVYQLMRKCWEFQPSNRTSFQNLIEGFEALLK

O=P(O)(O)OCC1OC(n2cnc3c(NCc4ccccc4)ncnc32)C(O)C1O (stereo not shown) [IST5]
did not alter: phosphorylation of Jak3 ([1]; CWR22Pc cells) | phosphorylation of Jak3 ([1]; DU145 cells) | phosphorylation of Jak1 ([2]; CWR22Pc cells) | phosphorylation of Jak1 ([2]; DU145 cells)
